The results in this text go back to DBAASP.

The structures appear in SMILES notation. In brackets after ≈: the same amount, converted by molar mass. A value given as a limit tells only on which side of the number the result lay.

Assay in all cases: ≥ marks a high value that may be exact or a test limit, other limits are often not marked, values filed in µg/mL are converted to µM
Test [1] has as its system Mycobacterium tuberculosis H37Rv.
Test [2] deals with Staphylococcus aureus ATCC 6538.
In test [3] the test system is Staphylococcus aureus ATCC 43300.
Test [4] has as its system Escherichia coli ATCC 8739.
Test [5] concerns Bacillus subtilis ATCC 6633.
Test [6] has as its system Candida albicans ATCC 90028.
Test [7] has as its system Listeria innocua.
Test [8] deals with Micrococcus luteus A270.
Test [9] concerns Salmonella enterica subsp. enterica serovar Enteritidis.
Test [10] has as its system Escherichia coli.
The test system of test [11] is Bacillus anthracis Sterne 34F2.
The subject of test [12] is Burkholderia thailandensis.
Test [13] concerns Bacillus subtilis ATCC 9372.
Test [14] concerns Escherichia coli K-12.
Test [15] relates to Staphylococcus aureus USA 300.
The test system of test [16] is Pseudomonas aeruginosa PAO1.
Test [17] has as its system Bacillus subtilis 168.
Test [18] deals with Escherichia coli ATCC 25922.
The test system of test [19] is Salmonella enterica subsp. enterica serovar Typhi.
The test system of test [20] is Pseudomonas aeruginosa.
The subject of test [21] is Bacillus subtilis.
Test [22] deals with Staphylococcus aureus.
Test [23] concerns Pseudomonas aeruginosa ATCC 27853.
Test [24] has as its system Staphylococcus aureus ATCC 25923.
The subject of test [25] is Enterobacter cloacae.
For test [26], the system named is Yersinia pseudotuberculosis YPIII.
The test system of test [27] is Staphylococcus aureus Cowan 1.
The test system of test [28] is Bacillus megaterium Bm11.
The test system of test [29] is Candida albicans ATCC 10231.
The subject of test [30] is Staphylococcus capitis 1.

`C[C@H](NC(=O)[C@@H]1CCCN1C(=O)[C@H](CCC(=O)O)NC(=O)[C@H](CCC(N)=O)NC(=O)[C@H](CCCCN)NC(=O)[C@@H]1CCCN1C(=O)[C@H](C)NC(=O)[C@@H]1CCCN1C(=O)[C@H](CCCCN)NC(=O)[C@@H]1CCCN1C(=O)[C@H](CCCCN)NC(=O)[C@@H](NC(=O)[C@@H](NC(=O)[C@H](CCCN=C(N)N)NC(=O)[C@@H]1CCCN1C(=O)[C@H](CCCCN)NC(=O)[C@@H](N)CCCN=C(N)N)[C@@H](C)O)[C@@H](C)O)C(=O)N[C@H](C(=O)N[C@@H](CCC(=O)O)C(=O)N[C@@H](CCC(=O)O)C(=O)O)[C@@H](C)O` [RKPRTTKPKPAPKQEPATEE] gave an MIC in test [1] of at least 87.4 µM.
As for `CC[C@H](C)[C@H](NC(=O)CN)C(=O)N[C@@H](Cc1ccccc1)C(=O)N[C@@H](CO)C(=O)N[C@H](C(=O)N[C@H](C(=O)N[C@@H](Cc1ccccc1)C(=O)N[C@@H](CCCCN)C(=O)N[C@@H](C)C(=O)NCC(=O)N[C@@H](CCCCN)C(=O)NCC(=O)N[C@H](C(=O)N[C@H](C(=O)N[C@H]1CSSC[C@@H](C(=O)O)NC(=O)[C@H](CC(C)C)NC(=O)CNC(=O)[C@H]([C@@H](C)O)NC(=O)[C@H](CC(C)C)NC(=O)CNC1=O)C(C)C)[C@@H](C)CC)C(C)C)[C@@H](C)O` [GIFSTVFKAGKGIVCGLTGLC], the MIC in test [2] was 3.1 µM (≈ 6.42 µg/mL); in test [3] it was 12.5 µM (≈ 25.9 µg/mL); in [4], 25 µM (≈ 51.7 µg/mL); in test [5] it was 12.5 µM (≈ 25.9 µg/mL); in test [6], at least 50 µM.
Turning to `CSCC[C@H](N)C(=O)N[C@@H](CC(C)C)C(=O)N[C@H](C(=O)N[C@@H](C)C(=O)N[C@@H](CCC(=O)O)C(=O)N[C@@H](CCC(=O)O)C(=O)N[C@@H](CCCCN)C(=O)N[C@@H](C)C(=O)N[C@@H](C)C(=O)N[C@H](C(=O)N[C@H](C(=O)N[C@@H](C)C(=O)N[C@@H](Cc1ccccc1)C(=O)O)[C@@H](C)O)C(C)C)[C@@H](C)O` [MLTAEEKAAVTAF], the MIC in test [7] is 6 µM (≈ 8.29 µg/mL); in test [8], 4 µM (≈ 5.53 µg/mL); in test [9], 6 µM (≈ 8.29 µg/mL); in test [10] it was 4 µM (≈ 5.53 µg/mL).
Take `CC(C)C[C@H](NC(=O)[C@H](CCC(=O)O)NC(=O)[C@@H](NC(=O)[C@H](CC(=O)O)NC(=O)[C@H](CCCCN)NC(=O)[C@H](CC(N)=O)NC(=O)[C@H](C)NC(=O)[C@H](CCCCN)NC(=O)[C@H](CCCCN)NC(=O)CNC(=O)[C@H](CCCCN)NC(=O)[C@@H](N)CO)C(C)C)C(=O)N[C@@H](C)C(=O)N[C@@H](CCCN=C(N)N)C(=O)NCC(=O)O` [SKGKKANKDVELARG]: the MIC in [11] was at least 100 µM; in [12] it was at least 50 µM; in test [13], at least 100 µM.
As to `CC[C@H](C)[C@H](NC(=O)[C@H](CCCN=C(N)N)NC(=O)[C@H](CCC(N)=O)NC(=O)[C@@H](NC(=O)[C@@H](NC(=O)[C@H](CCCN=C(N)N)NC(=O)[C@H](CCCCN)NC(=O)[C@H](Cc1ccccc1)NC(=O)[C@H](CCC(=O)O)NC(=O)CN)[C@@H](C)CC)C(C)C)C(=O)N[C@@H](CCCCN)C(=O)N[C@@H](CC(=O)O)C(=O)N[C@@H](Cc1ccccc1)C(=O)N[C@@H](CC(C)C)C(=O)N[C@@H](CCCN=C(N)N)C(=O)N[C@@H](CC(N)=O)C(=O)N[C@@H](CC(C)C)C(=O)N[C@H](C(N)=O)C(C)C` [GEFKRIVQRIKDFLRNLV], the MIC in test [14] and in [15] was at least 60 µM throughout.
As for `CC(=O)N[C@@H](C)C(=O)N[C@@H](CCC(=O)O)C(=O)N[C@@H](CCCN=C(N)N)C(=O)N[C@H](C(=O)NCC(=O)N[C@@H](C)C(=O)NCC(=O)N[C@@H](C)C(=O)N1CCC[C@H]1C(=O)N[C@H](C(=O)N[C@@H](Cc1ccc(O)cc1)C(=O)N[C@@H](CC(C)C)C(N)=O)C(C)C)C(C)C` [AERVGAGAPVYL], the values for the MIC in [11], in test [12] and in test [13] were at least 100 µM, at least 50 µM and at least 100 µM, respectively.
In the case of `CC(C)C[C@H](NC(=O)[C@H](CC(C)C)NC(=O)[C@H](CCCCN)NC(=O)CNC(=O)[C@H](CC(C)C)NC(=O)[C@H](CC(C)C)NC(=O)[C@H](CO)NC(=O)[C@H](CC(C)C)NC(=O)[C@H](CC(C)C)NC(=O)[C@@H]1CCCN1C(=O)[C@H](CC(C)C)NC(=O)[C@H](CC(C)C)NC(=O)CN)C(N)=O` [GLLPLLSLLGKLL], the MIC in test [16] is over 100 µM; in test [17], 3.12 µM (≈ 4.21 µg/mL); in test [14], 25 µM (≈ 33.7 µg/mL); in [15], 1.56 µM (≈ 2.1 µg/mL).
Take `CC(C)C[C@H](NC(=O)[C@H](CCCCN)NC(=O)[C@H](CCCN=C(N)N)NC(=O)[C@H](Cc1ccccc1)NC(=O)[C@H](Cc1ccccc1)NC(=O)[C@H](CCCCN)NC(=O)[C@H](CCCCN)NC(=O)[C@H](Cc1ccccc1)NC(=O)[C@H](CCCN=C(N)N)NC(=O)[C@H](CCCCN)NC(=O)[C@@H](NC(=O)[C@H](CC(C)C)NC(=O)[C@@H](N)CCCCN)C(C)C)C(=O)N[C@@H](CCCCN)C(=O)N[C@@H](CCCCN)C(=O)N[C@@H](CO)C(N)=O` [KLVKRFKKFFRKLKKS]: the MIC in test [18] is 30.7 µM (≈ 64 µg/mL); in [19] it was 3.84 µM (≈ 8 µg/mL); in [20], 7.69 µM (≈ 16 µg/mL); in [21], at least 61.5 µM; in test [22], 61.5 µM (≈ 128 µg/mL); in [23], 61.5 µM (≈ 128 µg/mL). Further, the MIC in test [10] is 15.4 µM (≈ 32 µg/mL); in [24], 0.961 µM (≈ 2 µg/mL); in [25], at least 123 µM; in [6], 30.7 µM (≈ 64 µg/mL).
Regarding `CC[C@H](C)[C@H](NC(=O)CNC(=O)[C@H](C)NC(=O)[C@H](CC(C)C)NC(=O)[C@@H](NC(=O)[C@H](CCCN=C(N)N)NC(=O)CNC(=O)[C@@H](NC(=O)[C@H](CC(C)C)NC(=O)[C@@H]1CCCN1C(=O)[C@H](CC(C)C)NC(=O)[C@@H](N)Cc1ccccc1)[C@@H](C)CC)C(C)C)C(=O)N[C@@H](CC(C)C)C(N)=O` [FLPLIGRVLAGIL], the MIC in test [18] is over 40 µM; in [26], 20 µM (≈ 27.6 µg/mL); in test [27] it was 2.5 µM (≈ 3.45 µg/mL); in test [28] it was 2.5 µM (≈ 3.45 µg/mL); in test [29], 2.5 µM (≈ 3.45 µg/mL); in test [30], 5 µM (≈ 6.9 µg/mL).
